Test results from patent US5719128A, “Factor IIa inhibitors” (Akzo Nobel N.V., priority 1991, dated 1998).
Residues, ends and D or L forms follow the SMILES beside them.

How the values were obtained:
Format in all cases: biochemical
[1] = biological target: human thrombin (Homo sapiens, UniProt P00734); test: Inhibition of human thrombin (aIIa), splitting of chromogenic substrate S 2238; conditions: measured after 90 minutes, expressed as the molar concentration which inhibited the end absorbance by 50%
Protocol: (§1) The inhibition of human thrombin was investigated by continuously monitoring the splitting of the chromogenic substance S 2238 (N-D-Phe-L-pipecolyl-L-Arg-p-nitro-anilide 2 HCl) in the absence and in the presence of 3, 1, 0.3, 0.1 and 0.03 mM of the compound investigated. These measurements were performed with the help of a kinetic microtiter plate reader. From these measurements the end absorbances were calculated after 90 minutes. Based on these total scores, an IC50 of the various compounds investigated is expressed as the molar concentration which inhibited the end absorbance by 50%. IC50 values for aXa-activity were investigated in the same way by using the chromogenic substrate s2222 (N-benzoyl-Ile-Glu-(OCH3)Gly-Arg-pNa).

[2] = biological target: aXa (Homo sapiens, UniProt P00742); test: aXa-activity, chromogenic substrate s2222; conditions: measured after 90 minutes, expressed as molar concentration
Protocol: as §1

[3] = biological target: T1, Factor IIa (Homo sapiens, UniProt P00734); test: Ki against Factor IIa; conditions: called minimum inhibitory concentrations
T1 construct: Ki [M]-Factor IIa

Chain of aXa (P00742 41-179 limits assumed): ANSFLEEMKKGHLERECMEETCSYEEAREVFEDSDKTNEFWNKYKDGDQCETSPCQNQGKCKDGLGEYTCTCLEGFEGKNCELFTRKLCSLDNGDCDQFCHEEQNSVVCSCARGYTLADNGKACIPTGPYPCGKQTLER
Chain of aXa (P00742 235-488 limits assumed): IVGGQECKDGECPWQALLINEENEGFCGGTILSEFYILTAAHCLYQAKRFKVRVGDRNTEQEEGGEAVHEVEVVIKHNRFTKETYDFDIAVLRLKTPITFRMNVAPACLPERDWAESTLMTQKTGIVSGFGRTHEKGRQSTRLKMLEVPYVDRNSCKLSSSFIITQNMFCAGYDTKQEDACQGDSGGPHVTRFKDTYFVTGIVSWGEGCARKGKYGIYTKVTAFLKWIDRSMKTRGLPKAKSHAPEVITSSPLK

Compound	IC50 [1]	IC50 [2]	Ki [3]
C[C@H](NC(=O)[C@H](CCCNC(=N)N)NC(=O)[C@@H]1CCCN1C(=O)[C@H](N)Cc1ccccc1)C(=O)N[C@@H](Cc1ccccc1)C(=O)N[C@@H](CCCCN)C(=O)O [H-D-Phe-Pro-Arg-Ala-Phe-Lys-OH] (HELM PEPTIDE1{[dF].P.R.A.F.K}$$$$V2.0)	110 µM	3100 µM	
N=C(N)NCCC[C@H](NC(=O)[C@@H]1CCCN1C(=O)[C@H](N)Cc1ccccc1)C(=O)NCC(=O)O [H-D-Phe-Pro-Arg-Gly-OH, reference compound] (HELM PEPTIDE1{[dF].P.R.G}$$$$V2.0)	4000 µM	4800 µM	70 µM
N=C(N)NCCC[C@H](NC(=O)[C@@H]1CCCN1C(=O)[C@H](N)Cc1ccccc1)C(=O)NCC(=O)N[C@@H](Cc1ccccc1)C(=O)N[C@@H](CCCCN)C(=O)O [H-D-Phe-Pro-Arg-Gly-Phe-Lys-OH] (HELM PEPTIDE1{[dF].P.R.G.F.K}$$$$V2.0)	250 µM	1600 µM	3.4 µM
N=C(N)NCCC[C@H](NC(=O)[C@@H]1CCCN1C(=O)[C@H](N)Cc1ccccc1)C(=O)NCC(=O)N[C@@H](Cc1ccccc1)C(=O)O [H-D-Phe-Pro-Arg-Gly-Phe-OH] (HELM PEPTIDE1{[dF].P.R.G.F}$$$$V2.0)	410 µM	1300 µM	7.6 µM
N=C(N)NCCC[C@H](NC(=O)[C@@H]1CCCN1C(=O)[C@H](N)Cc1ccccc1)C(=O)CCC(=O)O [H-D-Phe-Pro-Arg-psi[COCH2 ]-Gly-OH]			26 µM
NCCCC[C@H](NC(=O)[C@H](Cc1ccccc1)NC(=O)CCC(=O)[C@H](CCCN=C(N)N)NC(=O)[C@@H]1CCCN1C(=O)[C@H](N)Cc1ccccc1)C(=O)O [H-D-Phe-Pro-Arg-psi[COCH2 ]-Gly-Phe-Lys-OH] (HELM PEPTIDE1{[dF].P.[N=C(N)NCCC[C@H](N[*:1])C(=O)CCC(=O)[*:2]].F.K}$$$$V2.0)			0.028 µM
N=C(N)NCCC[C@H](NC(=O)[C@@H]1CCCN1C(=O)[C@H](N)Cc1ccccc1)C(=O)CCC(=O)N[C@@H](Cc1ccccc1)C(=O)O [H-D-Phe-Pro-Arg-psi[COCH2 ]-Gly-Phe-OH]	37 µM	2100 µM	0.48 µM
